Measured values from patent US4183920A, “4-N-Acyl, 2'-N-acyl and 4,2'-N,N'-diacylfortimicin E derivatives” (Abbott Laboratories, priority 1977, dated 1980).
Structures can show the parent of a compound that is named as a salt. Where two headings read alike, the source gives them in different places.

Tests used:
Assay in all cases: In vitro antibiotic activity, 2-fold agar dilution method
Assay type in all cases: cell-based
[1] = test system: Bacillus subtilus U. Ill. 10707
Procedure: (§1) The in vitro antibiotic activity is determined by a 2-fold agar dilution method using 10 ml. per petri plate of Mueller-Hinton agar. The agar is inoculated with one loopful (0.001 ml. loop) of a 1:10 dilution of a 24 hour broth culture of the indicated test organism and incubated at 37° C. for 24 hours. Minimum inhibitory concentrations (MIC) are expressed as mcg/ml.

E. coli Juhl = conditions: Escherichia coli
Procedure: as §1

E. coli R3 = conditions: Escherichia coli
Procedure: as §1

Kleb. pneumoniae KY 4262 = conditions: Klebsiella pneumoniae
Procedure: as §1

Proteus vulgaris JJ = test system: Proteus vulgaris JJ
Procedure: as §1

Pseudo aeruginosa = test system: Pseudo aeruginosa
Procedure: as §1

Sal. typhimurium Ed #9 = conditions: Salmonella enterica
Procedure: as §1

Shigella sonnei 9290 = conditions: Mueller-Hinton agar, 37° C., 24 hours
Procedure: as §1

Staph aureus Smith = conditions: Staphylococcus aureus
Procedure: as §1

Strep. faecalis 10541 = test system: Strep. faecalis 10541
Procedure: as §1

[2] = Bacillus subtilus U. Ill. 10707, Mueller-Hinton agar, 37° C., 24 hours, read-out: MIC
[3] = E. coli Juhl, Mueller-Hinton agar, 37° C., 24 hours, read-out: MIC
[4] = E. coli R3, Mueller-Hinton agar, 37° C., 24 hours, read-out: MIC
[5] = KY4262, Kleb. pneumoniae KY 4262, Mueller-Hinton agar, 37° C., 24 hours, read-out: MIC
[6] = Proteus vulgaris JJ, Mueller-Hinton agar, 37° C., 24 hours, read-out: MIC
[7] = Pseudo aeruginosa, Mueller-Hinton agar, 37° C., 24 hours, read-out: MIC
[8] = Sal. typhimurium Ed #9, Mueller-Hinton agar, 37° C., 24 hours, read-out: MIC
[9] = Staph aureus Smith, Mueller-Hinton agar, 37° C., 24 hours, read-out: MIC
[10] = Enterococcus faecalis, Strep. faecalis 10541, Mueller-Hinton agar, 37° C., 24 hours, read-out: MIC

| Compound | MIC [1, 2] | MIC (E. coli Juhl; [3]) | MIC (E. coli R3; [4]) | MIC (Kleb. pneumoniae KY 4262; [5]) | MIC (Proteus vulgaris JJ; [6]) | MIC (Pseudo aeruginosa; [7]) | MIC (Sal. typhimurium Ed #9; [8]) | MIC (Shigella sonnei 9290) | MIC (Staph aureus Smith; [9]) | MIC (Strep. faecalis 10541; [10]) | MIC ([1]; Bacillus, U.ILL.10707, 24 h) | MIC (E. coli Juhl; 24 h) | MIC (E. coli R3; R3, 24 h) | MIC (Kleb. pneumoniae KY 4262; KY4262, 24 h) | MIC (Proteus vulgaris JJ; Proteus vulgaris, 24 h) | MIC (Pseudo aeruginosa; 24 h) | MIC (Sal. typhimurium Ed #9; TYPHIMURIUM, 24 h) | MIC (Staph aureus Smith; 24 h) | MIC (Strep. faecalis 10541; Enterococcus faecalis, 10541, 24 h) |
| --- | --- | --- | --- | --- | --- | --- | --- | --- | --- | --- | --- | --- | --- | --- | --- | --- | --- | --- | --- |
| COC1C(O)C(N)C(OC2OC(C(C)N)CCC2N)C(O)C1N(C)C(=O)[C@@H](O)CCN (stereo partly drawn) [4-N-L-(2-hydroxy-4-amino)butyrylfortimicin E tetrahydrochloride salt] | 12.5 µg/mL | 50 µg/mL | > 100 µg/mL | 50 µg/mL | > 100 µg/mL | > 100 µg/mL | 100 µg/mL | > 100 µg/mL | 25 µg/mL | > 100 µg/mL | – | – | – | – | – | – | – | – | – |
| COC1C(O)C(N)C(OC2OC(C(C)N)CCC2N)C(O)C1N(C)C(=O)CN (stereo not shown) [4-N-glycylfortimicin E tetrahydrochloride salt] | – | – | – | – | – | – | – | 25 µg/mL | – | – | 12.5 µg/mL | 6.25 µg/mL | > 100 µg/mL | 25 µg/mL | > 100 µg/mL | > 100 µg/mL | 25 µg/mL | 6.25 µg/mL | > 100 µg/mL |
| CNCC(=O)N(C)C1C(O)C(OC2OC(C(C)N)CCC2N)C(N)C(O)C1OC (stereo not shown) [4-N-sarcosylfortimicin E tetrahydrochloride salt] | 6.25 µg/mL | 50 µg/mL | > 100 µg/mL | 100 µg/mL | > 100 µg/mL | > 100 µg/mL | 50 µg/mL | 100 µg/mL | 25 µg/mL | > 100 µg/mL | – | – | – | – | – | – | – | – | – |
| COC1C(O)C(N)C(OC2OC(C(C)N)CCC2N)C(O)C1N(C)C(=O)CCN (stereo not drawn) [4-N-β-alanylfortimicin E tetrahydrochloride salt] | 12.5 µg/mL | 25 µg/mL | > 100 µg/mL | 25 µg/mL | > 100 µg/mL | > 100 µg/mL | 25 µg/mL | > 100 µg/mL | 12.5 µg/mL | > 100 µg/mL | – | – | – | – | – | – | – | – | – |
